Experimental findings from US20250034116A1, “1,4-DIHETEROCYCLIC SUBSTITUTED AROMATIC RING OR AROMATIC HETEROCYCLIC COMPOUND AND USE THEREOF” (BeBetter Med Inc., priority 2022, published 2025) are described below.

For series [1], the system named is CYP enzymes in human liver microsomes (HLM). Kind of series: Inhibition of 20-HETE production in human liver microsomes (HLM). Type of series: biochemical. Here is the method:
(§1) Experimental principle: The inhibitory activity of 20-HETE production is evaluated by testing the inhibitory effects of the compound on human liver microsomes (HLM), rat liver microsomes (RLM), mouse liver microsomes (MLM), or […] CYP4 subtype enzymes (CYP4F2). This assay employs HLM, RLM, or MLM along with recombinant CYP4F2 (rCYP4F2) and recombinant CYP4A11 (rCYP4A11), which are […] CYP4 subtype enzymes, to detect the effects of the test compound at different concentrations on the metabolic rate of enzyme-specific substrates, to determine the inhibitory effects of the test compound on CYP enzymes in HLM, RLM, or MLM.
(§2) Experimental methods: Dissolve the test compound in DMSO, and subsequently dilute it with an acetonitrile and DMSO mixture (3:1). Add 2 μl of varying concentrations of the test compound and 100 μl of potassium phosphate buffer containing either liver microsomes or recombinant enzymes to a 96-well plate. After mixing well, transfer 30 μl to another well (in duplicate), add 15 μl of 400 μM substrate solution, and mix well again. Preheat at 37° C. for 10 minutes, and then add 15 μl of 6 mM NADPH and incubate at 37° C. for 25 minutes. After 25 minutes, add 160 μl of acetonitrile solution (containing 0.1 μg/ml internal standard) to stop the reaction. Mix well, centrifuge at 3500 g for 15 minutes, and then analyze the supernatant using LC-MS/MS.
(§3) Plot the compound concentration on the x-axis and the inhibition rate on the y-axis to draw the curve. Use GraphPad Prism 5 software to fit the curve and calculate the IC50. The formula is Y=Bottom+(Top−Bottom)/(1+10^((Log IC50−X)×HillSlope)). X represents the logarithmic concentration of the inhibitor, and Y represents the relative enzyme activity at a given inhibitor concentration (relative to the condition without the inhibitor).
(§4) Calculate the inhibition percentages at concentrations of 1000 nM, 500 nM, or 100 nM as well as the half-maximal inhibitory concentration (IC50) of the test compound from the above experiment.

Series [2] relates to CYP enzymes in rat liver microsomes (RLM). Kind of series: Inhibition of 20-HETE production in rat liver microsomes (RLM). Type of series: biochemical. As to the method: as §1, §2, §3, §4
A general note: Liver microsomes are a subcellular fraction often used to study metabolism.

In the case of `Clc1ccc(CC2CCN(c3ccc(-c4cn[nH]c4)cc3)CC2)cc1` [Compound 41, 1-(4-(1H-pyrazol-4-yl)phenyl)-4-(4-chlorobenzyl)piperidine], the “HLM (% inh @ 500 nM)” value in series [1] came out at 57.77%. In series [2], the “RLM (% inh @ 500 nM)” value is on record as 15.76%.

With `O=C1c2ccccc2CCN1CC1CCN(c2ccc(-c3cn[nH]c3)cc2)CC1` [Compound 42, 2-((1-(4-(1H-pyrazol-4-yl)phenyl)piperidin-4-yl)methyl)-3,4-dihydroisoquinolin-1(2H)-one], the 50% inhibitory concentration (IC50) in series [1] worked out at 32.8 nM. Further, in series [2], the IC50 turned out to be 605 nM and the “RLM (% inh @ 500 nM)” value is 25.96%.

Turning to `CC(=O)NCC1CCN(c2ccc(-c3cn[nH]c3)cc2)CC1` [Compound 43, N-((1-(4-(1H-pyrazol-4-yl)phenyl)piperidin-4-yl)methyl) acetamide], in series [1], the “HLM (% inh @ 500 nM)” value came to 61.30%. In series [2], the “RLM (% inh @ 500 nM)” value came to 31.42%.

On to `CCCCCCC(=O)NCC1CCN(c2ccc(-c3cn[nH]c3)cc2)CC1` [Compound 44, N-((1-(4-(1H-pyrazol-4-yl)phenyl)piperidin-4-yl)methyl) heptylamide], for which, in series [1], the IC50 is 25.2 nM and the “HLM (% inh @ 500 nM)” value amounted to 85.05%. In series [2], this compound yielded an IC50 of 33.8 nM.

Take `O=C(CCCCCO)NCC1CCN(c2ccc(-c3cn[nH]c3)cc2)CC1` [Compound 45, N-((1-(4-(1H-pyrazol-4-yl)phenyl)piperidin-4-yl)methyl)-6-hydroxyhexanamide]: the “HLM (% inh @ 500 nM)” value in series [1] is 57.83%. The “RLM (% inh @ 500 nM)” value in series [2] is reported as 26.43%.

In the case of `O=C(NCC1CCN(c2ccc(-c3cn[nH]c3)cc2)CC1)C1CCCC1` [Compound 46, N-((1-(4-(1H-pyrazol-4-yl)phenyl)piperidin-4-yl)methyl)cyclopentanecarboxamide], in series [1], the IC50 stood at 43.2 nM. Moreover, in series [2], the IC50 was found to be 942 nM and the “RLM (% inh @ 500 nM)” value was 35.54%.

Regarding `O=C1CCCN1CCC1CCN(c2ccc(-c3cn[nH]c3)cc2)CC1` [Compound 48, 1-(2-(1-(4-(1H-pyrazol-4-yl)phenyl)piperidin-4-yl)ethyl)pyrrolidin-2-one], in series [1], the “HLM (% inh @ 500 nM)” value is recorded as 73.42%. In series [2], the “RLM (% inh @ 500 nM)” value amounted to 39.97%.

As for `O=C(C1CCN(c2ccc(-c3cn[nH]c3)cc2)CC1)N1CCOCC1` [Compound 50, (1-(4-(1H-pyrazol-4-yl)phenyl)piperidin-4-yl)(morpholinyl) methanone], in series [1], the “HLM (% inh @ 500 nM)” value is listed as 57.59%. Also, in series [2], the “RLM (% inh @ 500 nM)” value is listed as 14.48%.

Consider `O=C(C1CCN(c2ccc(-c3cn[nH]c3)cc2)CC1)N1CCCCC1` [Compound 54, (1-(4-(1H-pyrazol-4-yl)phenyl)piperidin-4-yl)(piperidin-1-yl) methanone], for which, in series [1], the “HLM (% inh @ 500 nM)” value is on record as 81.26%. In addition, in series [2], the 50% inhibitory concentration (IC50) came out at 995 nM and the “RLM (% inh @ 500 nM)” value was found to be 32.02%.

Consider `O=C(NC1CCCC1)C1CCN(c2ccc(-c3cn[nH]c3)cc2)CC1` [Compound 55, 1-(4-(1H-pyrazol-4-yl)phenyl)-N-cyclopentylpiperidine-4-carboxamide], for which the “HLM (% inh @ 500 nM)” value in series [1] is listed as 62.73%. Moreover, in series [2], the “RLM (% inh @ 500 nM)” value was determined as 21.92%.

With `O=C(Nc1ccc(F)cc1)C1CCN(c2ccc(-c3cn[nH]c3)cc2)CC1` [Compound 61, 1-(4-(1H-pyrazol-4-yl)phenyl)-N-(4-fluorophenyl)piperidine-4-carboxamide], in series [1], the IC50 was found to be 17.6 nM and the “HLM (% inh @ 500 nM)” value is reported as 85.27%. Moreover, half-maximal inhibition in series [2] (IC50) was put at 60.5 nM.

In the case of `O=C(C1CCN(c2ccc(-c3cn[nH]c3)cc2)CC1)N1CC2CCC1C2` (stereo not shown) [Compound 65, (1-(4-(1H-pyrazol-4-yl)phenyl)piperidin-4-yl)(2-azabicyclo[2.2.1]heptane-2-yl) methanone], the “HLM (% inh @ 500 nM)” value in series [1] came to 52.63%. Moreover, the “RLM (% inh @ 500 nM)” value in series [2] came to 2.30%.

For the compound `O=C(C1CCN(c2ccc(-c3cn[nH]c3)cc2)CC1)N1CC2(CCC2)C1` [Compound 67, (1-(4-(1H-pyrazol-4-yl)phenyl)piperidin-4-yl)(2-azaspiro[3.3]heptane-2-yl) methanone], the “HLM (% inh @ 500 nM)” value in series [1] was found to be 55.57%. For the same compound, the “RLM (% inh @ 500 nM)” value in series [2] is on record as 30.84%.

The IC50 is the concentration that inhibits the measured activity by half. Low readings indicate higher potency, high ones lower potency.
